Measured values: patent publication US20140235445A1, “PESTICIDE COMPOSITIONS INCLUDING POLYMERIC ADJUVANTS” (priority 2009, published 2014)

Tested on: fire ants
Experiment: fire ant kill test: time to death of all fire ants in a jar coated with dried insecticide composition
Type: in vivo
Description: In this example a series of commercially available insecticides were tested at various dilution levels and with and without a preferred copolymer, namely the AVAIL® copolymer previously described (a 40%-60% w/w aqueous composition of a saturated sodium salt of a maleic anhydride/itaconic acid copolymer in water). In each set of test runs, the selected insecticide was tested with a population of fire ants in order to determine the time required to kill the entire population.
In particular, in each test run 20 ml of the respective liquid insecticide composition was added to a mason jar and swirled around the inside bottom thereof. The liquid was then poured off and the remainder was allowed to dry on the inner jar surface, creating substantially a monomeric dried layer. The outside neck surface of the jar was then coated in talc, and the open end of the jar was placed into a fire ant nest. The talc coating prevented the aggressive fire ants from climbing the outer surface of the jar. A population of fire ants was thus established in each jar, and the jar was then topped with an apertured mason jar cap. The time to death of all of the fire ants was then recorded.
In each case, the recommended concentration of insecticide was prepared (recorded as “1×”), followed by dilutions with water to create the diluted compositions. Where copolymer was used, the copolymer was added to the insecticide with gentle mixing, at a level of 30 ml per gallon. If desired, lesser amounts of copolymer could be used, e.g., 20 ml per gallon.
In another series of tests, insecticides were tested with various copolymers having different ratios of maleic anhydride and itaconic acid moieties, and at different pH levels. In particular, respective copolymeric compositions were prepared made up ofpolymaleic acid, a 1:3 weight ratio of maleic anhydride to itaconic acid, a 1:1 weight ratio of maleic anhydride to itaconic acid, a 3:1 weight ratio of maleic anhydride to itaconic acid, and a 7:1 weight ratio of maleic anhydride to itaconic acid. Individual portions of each of these copolymers were then pH-modified using sodium hydroxide to provide, for each copolymer, portions with no pH adjustment, and with adjustment to pHs of 6, 7, and 8. These pH-modified test copolymers were then mixed with a 1/100× dilution of malathion at a level of 30 ml of copolymer per gallon of insecticide. Similarly, the same pH-adjusted copolymers were mixed with 1/20× water dilutions of permethrin, again at a level of 30 ml of copolymer per gallon of insecticide.
The test products were then used in the same fire ant kill experiment of Example 1, giving the data of Tables 2 and 3.

[1] = Table 1, insecticide at 1/20X dilution, copolymer, where used, 30 ml per gallon
[2] = Table 1, insecticide at 1/10X dilution
[3] = Table 1, insecticide at 1X (recommended concentration), time to kill entire fire ant population

SMILES	TIME TO DEATH [1] [min]	effect of the copolymer on kill time as compared with the insecticide itself (insecticide with copolymer vs insecticide alone)	TIME TO DEATH [2] [min]	TIME TO DEATH (Table 1, insecticide at 1/100X dilution, copolymer, where used, 30 ml per gallon) [min]	TIME TO DEATH [3] [min]	TIME TO DEATH (Table 2, 1/100X malathion, copolymer 30 ml per gallon, no pH adjustment (pH —)) [min]	TIME TO DEATH (Table 1, insecticide at ⅓X dilution) [min]
Cc1c(COC(=O)[C@H]2[C@@H](/C=C(\Cl)C(F)(F)F)C2(C)C)cccc1-c1ccccc1 (stereo in doubt) [bifenthrin, (2-methyl-3-phenylphenyl) methyl (1S,3S)-3-[(Z)-2-chloro-3,3,3-trifluoroprop-1-enyl]-2,2-dimethylcyclopropane-1-carboxylate]	15	–	–	–	–	–	–
CCOP(=S)(OCC)Oc1cc(C)nc(C(C)C)n1 [Diazinon®]	–	no decrease in kill times	–	–	–	–	–
CCOC(=O)CC(SP(=S)(OC)OC)C(=O)OCC (centres unmarked) [malathion, 2-(dimethoxyphosphinothioylthio) butanedioic acid diethyl ester]	5	–	2	30	1	14	–
CC1(C)C(C=C(Cl)Cl)C1C(=O)OCc1cccc(Oc2ccccc2)c1 (centres unmarked) [permethrin, (3-phenoxyphenyl) methyl 3-(2,2-dichloroethenyl)-2,2-dimethyl-cyclopropane-1-carboxylate]	20	–	5	–	5	–	5
